{
  "source": "patent US10959998B2",
  "about": "“Pharmaceutical use and pharmaceutical composition of pyrroloquinoline quinine, its derivatives and/or its salts” (priority 2015, dated 2021)",
  "key": {"[1]": {"tested_on": "hydrogen peroxide (H2O2) in endometrial stromal cells", "assay": "Determination of hydrogen peroxide (H2O2) content", "format": "cell-based, human", "details": "18 h", "procedure": "Superoxide anion (O2.^−) assay kit was purchased from Nanjing Jiancheng Bioengineering Insitute; Hydroxyl free radical assay kit was purchased from Shanghai Xinyu Biological Technology Co., Ltd., Hydrogen Peroxide Assay Kit was purchased from Beyotime Biotechnology Research Institute. The cells were seeded in 6-well cell culture plates and incubated for 24 h after the cells adhered to the plate. Three different concentrations PQQ (30 nm, 300 nm and 3 μm) were added to the cultures respectively. After additional 18 h incubation, the cells were lysed using the lysis buffer contained in reagent kit, centrifuged at 12000×g for 5 min at 4° C. 50 μL of sample supernatant was mixed with 100 μL detection solution, rested 30 min at room temperature. The optical density at wavelength 560 nm was measured."}, "[2]": {"tested_on": "ectopic endometrial stromal cells", "assay": "Cell cycle by propidium iodide flow cytometry", "format": "cell-based, human", "details": "24 h, p<0.01", "procedure": "Endometrial tissues were surgically isolated from patients with chocolate cyst of ovary, washed 2 to 3 times with PBS supplemented with antibiotics in ultra-clean cabinet, and cut into tiny pieces (about 1 mm^3 in size) with aseptic scissors. The tissues were digested with 1 mg/ml collagenase type I for 30 to 90 min at 37° C., and continually digested with Dnase I (final concentration of 15 U/ml, 2% Dnase I) for another 30 min. The digested tissues were filtered thorough 60-mesh stainless steel filter cell strainer to remove the undigested cell tissues, and were further filtered with 200- or 400-mesh strainer. The filtered solution was centrifuged at 1000 rpm for 5 min. After removing the supernatants, the cells were washed once with culture medium compounded by DMEM/F12 (1:1 v/v) and 10% fetal bovine serum, re-suspended in the culture medium, and seeded in 6-well tissue culture plate or T25 tissue culture flasks with an appropriate density. After 24 hours incubation, the culture medium was changed to remove the non-adherent blood cells, endothelial cells, macrophages and other miscellaneous cells. […] Vimentin which expresses specifically in stromal cells was detected by immuno-fluorescence to measure the cell purity. […] Cell cycle was determined with flow cytometry. […] Cell apotosis was determined by flow cytometry."}, "[3]": {"tested_on": "ectopic endometrial stromal cells", "assay": "MTT cell proliferation of ectopic endometrial stromal cells", "format": "cell-based, human", "procedure": "Endometrial tissues were surgically isolated from patients with chocolate cyst of ovary, washed 2 to 3 times with PBS supplemented with antibiotics in ultra-clean cabinet, and cut into tiny pieces (about 1 mm^3 in size) with aseptic scissors. The tissues were digested with 1 mg/ml collagenase type I for 30 to 90 min at 37° C., and continually digested with Dnase I (final concentration of 15 U/ml, 2% Dnase I) for another 30 min. The digested tissues were filtered thorough 60-mesh stainless steel filter cell strainer to remove the undigested cell tissues, and were further filtered with 200- or 400-mesh strainer. The filtered solution was centrifuged at 1000 rpm for 5 min. After removing the supernatants, the cells were washed once with culture medium compounded by DMEM/F12 (1:1 v/v) and 10% fetal bovine serum, re-suspended in the culture medium, and seeded in 6-well tissue culture plate or T25 tissue culture flasks with an appropriate density. After 24 hours incubation, the culture medium was changed to remove the non-adherent blood cells, endothelial cells, macrophages and other miscellaneous cells. After primary human endometrial stromal cells were grown to reach 90% confluence, the cells were digested with 0.25% trypsin for 4 to 6 min, and then subcultured with a split ratio of 1:2 to 1:3. Vimentin which expresses specifically in stromal cells was detected by immuno-fluorescence to measure the cell purity. The cells of purity >95% were used in the following experiments. Primary ectopic endometrial stromal cells of human were subcultured and the subcultured cells of the 3th to 6th passages were chosen as experimental subjects. The cells in logarithmic growth phase were […] and incubated in the cell culture plate at a density of 50%˜60% (i.e. 2×10^4 cells/well). After growing adherent on the wall for 24 hours, the cultured cells were divided into groups and each group was given different doses of PQQ. 20 μL MTT (5 mg/ml in PBS, pH=7.4) was added to each well at indicated time points. The cells were incubated in an incubator at 37° C. in a 5% CO2 atmosphere for 4 h. At the end of incubation, the culture supernatant in each cell was carefully aspirated away. 150 μL DMSO was added to each well. Then the wells were shaken with Orbital shaker for 10 min. The absorbance of each cell was detected at wavelength 490 nm. Finally, the cell proliferation curve was drawn. Primary ectopic endometrial stromal cells were cultured and the subcultured cells of the 3th to 6th passage were chosen as experimental subjects. The cells in logarithmic growth phase were […] and incubated in the cell culture plate at a of 50%˜60% (e.g. 2×10^4 cells/well). The cells grew adhering to the wall for 24 hours before being treated with drugs. The cells were divided into groups and each group was given different dose of PQQ. At indicated time point, 20 μL […] (5 mg/ml in PBS, pH=7.4) was added to every well. The cells were then incubated in an incubator at 37° C. in a 5% CO2 atmosphere for 4 h. After terminating incubation, the culture supernatant in each cell was carefully aspirated away, but formazan crystals should not be aspirated away in any case. 150 μL DMSO was added to each well respectively. All the wells were shaken with Orbital shaker for 10 min to make the crystals adequately solubilized. The absorbance of each cell was detected at wavelength 490 nm. Finally, the cell proliferation curve was drawn."}, "[4]": {"details": "cited from earlier work"}},
  "data": [
    {"compound": "O=C(O)c1cc(C(=O)O)c2c(n1)C(=O)C(=O)c1cc(C(=O)O)[nH]c1-2", "note": "[PQQ, pyrroloquinoline quinone]", "values": [
      {"measurement": "relative content of hydrogen peroxide (H2O2)", "setting": "[1]; PQQ 300 nM", "result": "significantly declined"},
      {"measurement": "relative content of hydrogen peroxide (H2O2)", "setting": "[1]; PQQ 3 uM", "result": "significantly declined"},
      {"measurement": "cell cycle", "setting": "[2]; PQQ 3 um", "result": "arrest the cell in G0/G1 phase"},
      {"measurement": "cell cycle", "setting": "[2]; PQQ 300 nm", "result": "arrest the cell in G0/G1 phase"},
      {"measurement": "cell proliferation compared with the control group", "setting": "[3]; PQQ 3 um, from 48 h after drug treatment, p<0.01", "result": "significantly inhibit cell proliferation"},
      {"measurement": "cell proliferation compared with the control group", "setting": "[3]; PQQ 30 nm, p>0.05", "result": "a certain inhibitory effect, but not significant"},
      {"measurement": "cell proliferation compared with the control group", "setting": "[3]; PQQ 300 nm, from 48 h after drug treatment, p<0.01", "result": "significantly inhibit cell proliferation"},
      {"measurement": "adverse reactions", "setting": "[4]; mice fed 100 mg/kg body weight/day for 14 consecutive days", "result": "did not show any adverse reactions"},
      {"measurement": "half lethal dose", "setting": "[4]; mice", "result": "1000-2000 mg/kg body weight/day"}
    ]}
  ]
}
